Columns and labels:
[1] = system: stimulated primary human T cells; assay: T cell proliferation assay, Condition A (X-VIVO15); format: cell-based; settings: Homo sapiens, T-cell, 96 h; Condition A: X-VIVO15 medium; anti-CD3/anti-CD28 beads, ATP, 4 days; CFSE-lo T cells
Protocol: (§1) The goal of this study was to determine the potency of ENT1 inhibitors by measuring the rescued proliferation of stimulated primary human T cells incubated in the presence of 100 uM Adenosine triphosphate (ATP), in baseline conditions (condition A) or in the presence of various proteins known to bind small molecules (condition B).
(§2) Venous blood from healthy volunteers, all of whom signed an informed consent approved by the Ethics Committee (FOR—UIC—BV-050-01-01 ICF_HBS_HD Version 5.0), was obtained by ImmuneHealth (Centre Hospitalier Universitaire Tivoli, La Louviere, Belgium). Mononuclear cells were collected by density gradient centrifugation, using SepMate-50 tubes (StemCell Technologies, Grenoble, France) and Lymphoprep (Stemcell Technologies) according to the manufacturer's instructions. CD3+ T cells were isolated by immunomagnetic negative selection, using the EasySep Human T Cell Isolation Kit (StemCell Technologies) as per the manufacturer's instructions. CD3+ T cells were stored in heat inactivated FBS (hiFBS; Gibco, ThermoFisher Scientific, Merelbeke, Belgium) and 10% DMSO in liquid nitrogen.
(§3) Purified human CD3+ T cells were thawed and washed once with RPMI1640 medium, UltraGlutamine (Lonza, Verviers, Belgium) containing 10% hiFBS. Cells were resuspended in PBS containing 10% hiFBS at 1×10^7 cells/ml. One volume of cells was combined with a matching volume of 2 μM CFSE solution in PBS, mixed well by pipetting, and incubated at room temperature for 5 minutes under rotation and protected from light. Excess CFSE was quenched by addition of PBS containing 10% hiFBS, and the cells were centrifuged (300×rcf, 7 minutes) and resuspended in X-VIVO15. Cells were again centrifuged and resuspended in X-VIVO15 for counting.
(§4) Cells were resuspended at 1.6×10^6 cells/mL in X-VIVO15 medium (Condition A) or X-VIVO15 medium containing 4% (v/v) HSA (Sigma-Aldrich, Diegem, Belgium) and 0.2% (v/v) ai-Acid Glycoprotein (Sigma-Aldrich, Diegem, Belgium) (Condition B).
(§5) […] of cell suspension (2×10^4 cells) was added to wells of sterile flat-bottom 384-well plates. Cells were activated by adding […] of anti-CD3 anti-CD28 coated microbeads (Dynabeads human T-activator CD3/CD28; Life Technologies, Paisley, UK) suspended in X-VIVO15 medium or X-VIVO15 medium containing 4% (v/v) HSA and 0.2% (v/v) ai-Acid Glycoprotein at a ratio of one microbead per two cells. Serial dilutions of the ENT1 inhibitors were conducted in X-VIVO15 medium and […] of the diluent was added to the wells. Cells were mixed by pipetting up and down and pre-incubated for 30 minutes in a 37° C. humidified tissue culture incubator with 5% CO2. After pre-incubation, cells were cultured in the presence or absence of ATP (Sigma-Aldrich) at a final concentration of […]. The final well volume was 50 μl in all cases. Experiments were performed in biological duplicates. Cells were mixed by pipetting up and down and incubated for 4 days in a 37° C. humidified tissue culture incubator with 5% CO2.
(§6) Samples were run on a BD LSR Fortessa FACS machine (BD FACSDiva Software v9.0.1). Data were analyzed using FlowJo (BD, v10.7.1). T cell proliferation was determined by measuring the frequency of ‘CFSE^lo’ (i.e. CFSE-diluted).
(§7) T cell proliferation data were analyzed using FlowJo software (Version 10.6.2). Dead cells and cellular debris were excluded on the basis of forward and side scatter profile and singlet cells were selected for further analysis.
(§8) T cell proliferation was determined based on the percent CFSE^lo total T cells for each condition. The data were plotted on the y-axis against log molar (M) concentration of ENT1 inhibitors on the x-axis in GraphPad Prism (version 9.0.0). IC50 and IC90 values were generated with the ‘log(agonist) vs. response—Find ECanything(F))’ function with F constrained to 50 or 90, respectively. pICF values were generated by taking the −logECF values.

human ENT1 = molecular target: T1, human ENT1 (Homo sapiens, UniProt Q99808); assay: ENT1 binding assay (competition with Sahenta-DY647 on JAR cells); settings: competition with SAHENTA-DY647 binding; IC50 categorized; read-out: Binding Assay IC50
T1 construct: JAR cells expressing ENT1 were purchased from ATCC; host or cells: JAR cells
T1 sequence (Q99808 1-456): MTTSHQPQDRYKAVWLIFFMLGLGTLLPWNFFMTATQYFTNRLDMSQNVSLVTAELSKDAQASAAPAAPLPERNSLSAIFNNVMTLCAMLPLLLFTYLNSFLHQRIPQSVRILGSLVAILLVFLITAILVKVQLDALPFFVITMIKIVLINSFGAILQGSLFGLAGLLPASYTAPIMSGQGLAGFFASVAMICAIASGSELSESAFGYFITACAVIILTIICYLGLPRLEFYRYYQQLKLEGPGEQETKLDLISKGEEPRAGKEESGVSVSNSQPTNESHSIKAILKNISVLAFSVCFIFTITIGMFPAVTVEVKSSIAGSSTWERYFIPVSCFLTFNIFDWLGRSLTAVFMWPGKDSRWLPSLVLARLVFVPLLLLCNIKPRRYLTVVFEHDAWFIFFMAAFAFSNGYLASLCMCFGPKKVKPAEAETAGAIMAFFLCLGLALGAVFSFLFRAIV
Summary of the method: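 Fluorescent-tracer displacement: compound incubated with JAR cells 30 min, 4 °C, before Sahenta-DY647 (100 nM) for another 30 min, 4 °C, in Hepes-buffered HBSS with 0.1% BSA. Bound tracer read at 670 nm after washes; IC50 from four-parameter fit, reported as mean of pIC50 values.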

[2] = system: stimulated primary human T cells; assay: T cell proliferation assay, Condition B (X-VIVO15, 2% HSA and 0.1% AAG); format: cell-based; settings: Homo sapiens, T-cell, 96 h; Condition B: X-VIVO15 medium containing HSA and α1-Acid Glycoprotein; anti-CD3/anti-CD28 beads, ATP, 4 days; CFSE-lo T cells
Protocol: as §1
Condition B: X-VIVO15, 2% Human Serum Albumin (HSA) and 0.1% α-1-Acid Glycoprotein (AAG)
as §2, §3, §4, §5, §6, §7, §8

IC50 (human ENT1)	Structure (SMILES)	IC50 [1]	IC50 [2]
1 to 20 nM	C[C@H]1O[C@@H](n2c(OCc3ccccc3)nc3c(OCc4ccc([N+](=O)[O-])cc4)ncnc32)[C@H](O)[C@@H]1O [Compound 2]	< 1 nM	20 to 500 nM
1 to 20 nM	C[C@H]1O[C@@H](n2c(NC3CCCC3)nc3c(OCc4ccccc4)ncnc32)[C@H](O)[C@@H]1O [Compound 5]	1 to 20 nM	20 to 500 nM
1 to 20 nM	C[C@H]1O[C@H](n2c(NCc3ccccc3)nc3c(OCc4ccc(OC(F)F)cc4)ncnc32)[C@H](O)[C@@H]1O [Compound 8]	< 1 nM	20 to 500 nM
< 1 nM	C[C@H]1O[C@@H](n2c(NC3CCC(F)(F)C3)nc3c(OCc4ccc([N+](=O)[O-])cc4)ncnc32)[C@H](O)[C@@H]1O (some centres unmarked) [Compound 9]	< 1 nM	1 to 20 nM
1 to 20 nM	C[C@H]1O[C@@H](n2c(NC3CCC(F)(F)CC3)nc3c(OCc4ccc([N+](=O)[O-])cc4)ncnc32)[C@H](O)[C@@H]1O [Compound 10]	< 1 nM	1 to 20 nM
< 1 nM	C[C@H]1O[C@@H](n2c(NC3CCCC3)nc3c(OCc4ccc(OC(F)F)cc4)ncnc32)[C@H](O)[C@@H]1O [Compound 11]	< 1 nM	1 to 20 nM
< 1 nM	C[C@H]1O[C@@H](n2c(NC3CCCC3)nc3c(OCc4ccc(C#N)cc4)ncnc32)[C@H](O)[C@@H]1O [Compound 12]	< 1 nM	20 to 500 nM
< 1 nM	C[C@H]1O[C@@H](n2c(NC3CCCC3)nc3c(OCc4ccc(OC(F)F)nc4)ncnc32)[C@H](O)[C@@H]1O [Compound 14]	< 1 nM	20 to 500 nM
1 to 20 nM	C[C@H]1O[C@@H](n2c(Nc3cnn(C)c3)nc3c(OCc4ccc([N+](=O)[O-])cc4)ncnc32)[C@H](O)[C@@H]1O [Compound 17]	1 to 20 nM	20 to 500 nM
1 to 20 nM	COCCCNc1nc2c(OCc3ccc(OC(F)F)cc3)ncnc2n1[C@@H]1O[C@H](C)[C@@H](O)[C@H]1O [Compound 46]		20 to 500 nM
1 to 20 nM	C[C@H]1O[C@@H](n2c(Nc3cnn(C)c3)nc3c(OCc4ccc(OC(F)F)cc4)ncnc32)[C@H](O)[C@@H]1O [Compound 64]		20 to 500 nM
1 to 20 nM	C[C@H]1O[C@@H](n2c(NCc3cnn(C)c3)nc3c(OCc4ccc(OC(F)F)cc4)ncnc32)[C@H](O)[C@@H]1O [Compound 66]		20 to 500 nM
1 to 20 nM	Cc1nc(CNc2nc3c(OCc4ccc(C#N)cc4)ncnc3n2[C@@H]2O[C@H](C)[C@@H](O)[C@H]2O)no1 [Compound 68]		20 to 500 nM
1 to 20 nM	C[C@H]1O[C@@H](n2c(NCc3ccc(C#N)nc3)nc3c(OCc4ccc(C#N)cc4)ncnc32)[C@H](O)[C@@H]1O [Compound 70]		20 to 500 nM
1 to 20 nM	C[C@H]1O[C@@H](n2c(NC3CCCC3)nc3c(OCc4ccc(C#N)nc4)ncnc32)[C@H](O)[C@@H]1O [Compound 74]		20 to 500 nM
1 to 20 nM	C[C@H]1O[C@@H](n2c(NC3CCOCC3)nc3c(OCc4ccc(C#N)nc4)ncnc32)[C@H](O)[C@@H]1O [Compound 76]		20 to 500 nM

IC50 (human ENT1)	Structure (SMILES)	IC50 [1]	IC50 [2]
1 to 20 nM	C[C@H]1O[C@@H](n2c(N[C@H]3CCOC3)nc3c(OCc4ccc(C#N)cc4)ncnc32)[C@H](O)[C@@H]1O [Compound 78]		20 to 500 nM
< 1 nM	CC(=O)N1CCC(Nc2nc3c(OCc4ccc(C#N)cc4)ncnc3n2[C@@H]2O[C@H](C)[C@@H](O)[C@H]2O)CC1 [Compound 80]		1 to 20 nM
1 to 20 nM	C[C@H]1O[C@@H](n2c(NC3CCCC3)nc3c(OCc4ccc(OC(F)(F)F)nc4)ncnc32)[C@H](O)[C@@H]1O [Compound 87]		20 to 500 nM
1 to 20 nM	C[C@H]1O[C@@H](n2c(NC3CCC(O)C3)nc3c(OCc4ccc(C(F)(F)F)cc4)ncnc32)[C@H](O)[C@@H]1O (some centres unmarked) [Compound 100]		20 to 500 nM
< 1 nM	Cc1cc(COc2ncnc3c2nc(NC2CCOCC2)n3[C@@H]2O[C@H](C)[C@@H](O)[C@H]2O)ccc1[N+](=O)[O-] [Compound 103]		20 to 500 nM
1 to 20 nM	C[C@H]1O[C@@H](n2c(NCC3CCC(F)(F)C3)nc3c(OCc4ccc(OC(F)F)nc4)ncnc32)[C@H](O)[C@@H]1O (some centres unmarked) [Compound 115]		> 500 nM
1 to 20 nM	C[C@H]1O[C@@H](n2c(NCC3CCC(F)(F)CC3)nc3c(OCc4ccc(OC(F)F)nc4)ncnc32)[C@H](O)[C@@H]1O [Compound 116]		20 to 500 nM
1 to 20 nM	C[C@H]1O[C@@H](n2c(N[C@H]3CC[C@](C)(O)CC3)nc3c(OCc4ccc(OC(F)F)cc4)ncnc32)[C@H](O)[C@@H]1O [Compound 121]		20 to 500 nM
> 500 nM	C[C@H]1O[C@@H](n2cnc3c(C(=O)NCc4ccccc4)ncnc32)[C@H](O)[C@@H]1O [Compound 417]		
> 500 nM	C[C@H]1O[C@@H](n2cnc3c(C(=O)N4CCC(c5ccc([N+](=O)[O-])cc5)CC4)ncnc32)[C@H](O)[C@@H]1O [Compound 418]		
> 500 nM	C[C@H]1O[C@@H](n2cnc3c(C(=O)N4CCC(c5ccc([N+](=O)[O-])cc5)C4)ncnc32)[C@H](O)[C@@H]1O (some centres unmarked) [Compound 419]		
> 500 nM	C[C@H]1O[C@@H](n2cnc3c(-c4nc(-c5ccc([N+](=O)[O-])cc5)no4)ncnc32)[C@H](O)[C@@H]1O [Compound 420]		
> 500 nM	C[C@H]1O[C@@H](n2cnc3c(-c4noc(-c5ccc([N+](=O)[O-])cc5)n4)ncnc32)[C@H](O)[C@@H]1O [Compound 421]		
> 500 nM	C[C@H]1O[C@@H](n2cnc3c(C(=O)N4CCC4c4ccccc4)ncnc32)[C@H](O)[C@@H]1O (some centres unmarked) [Compound 422]		
> 500 nM	C[C@H]1O[C@@H](n2c(NCC3COC3)nc3c(OCc4ccc(Cl)cc4)ncnc32)[C@H](O)[C@@H]1O [Compound 423]		
> 500 nM	C[C@H]1O[C@@H](n2c(NCC3COC3)nc3c(OCc4ccc(OC(F)F)cc4)ncnc32)[C@H](O)[C@@H]1O [Compound 424]		

From patent US20260184712A1, “Heterocyclic Compounds as ENT Inhibitors and Compounds for Use in the Treatment of Cancers” (iTeos Belgium SA, priority 2022, published 2026)
